{"source": "patent US8173384B2", "about": "“Methods for analyzing or processing a heparin sample” (Massachusetts Institute of Technology, priority 2000, dated 2012)", "key": {"heparinase I": {"molecular_target": "T1, heparinase I (Pedobacter heparinus, UniProt Q05819)", "T1 construct": "made in house", "T1 sequence (Q05819 22-384)": "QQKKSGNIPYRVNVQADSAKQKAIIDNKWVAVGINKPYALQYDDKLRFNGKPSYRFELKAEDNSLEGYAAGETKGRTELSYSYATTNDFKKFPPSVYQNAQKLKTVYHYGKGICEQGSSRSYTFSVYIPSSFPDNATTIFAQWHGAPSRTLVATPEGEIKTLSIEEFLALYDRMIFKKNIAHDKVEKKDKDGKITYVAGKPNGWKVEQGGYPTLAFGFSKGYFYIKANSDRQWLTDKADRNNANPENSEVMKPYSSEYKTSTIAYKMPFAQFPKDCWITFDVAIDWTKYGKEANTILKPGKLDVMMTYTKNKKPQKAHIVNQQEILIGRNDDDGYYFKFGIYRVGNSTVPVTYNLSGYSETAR", "test": "Exhaustive heparinase I digestion, products by MALDI-MS", "format": "biochemical, Flavobacterium heparinum", "procedure": "(§1) Digests. Heparinase I digests were completed as described (Venkataraman, G., Shriver, Z., Raman, R. & Sasisekharan, R. (1999) Science 286, 537-42 and Rhomberg, A. J., Ernst, S., Sasisekharan, R. & Biemann, K. (1998) Proc Natl Acad Sci USA 95, 4176-81). Heparinase II or III reactions were completed in essentially the same way at room temperature in 10 μM ovalbumin, 1 μM dextran sulfate, and 10 mM ethylenediamine, pH 7.0. Short digestions were completed with 50 nM enzyme for 10 minutes while exhaustive digests were completed with 200 nM enzyme overnight. Mass spectra were collected using parameters as outlined above (see also Shriver, Z., Raman, R., Venkataraman, G., Drummond, K., Turnbull, J., Toida, T., Linhardt, R., Biemann, K. & Sasisekharan, R. (2000) Proc Natl Acad Sci USA, 2000 Sep. 12; 97(19):10359-64) and calibrated externally by using signals for protonated (RG)19R and its complex with a nitrous acid-derived hexasaccharide of the sequence I2SHNS,6S I2SHNS,6S I2SMan6S\n(§2) Enzymatic Action of the Heparinases Towards the AT-III Binding Site: Previously, we investigated the substrate specificity of heparinases I and II towards AT-10 (Rhomberg, A. J., Shriver, Z., Biemann, K. & Sasisekharan, R. (1998) Proc Natl Acad Sci USA 95, 12232-7 and Ernst, S., Rhomberg, A. J., Biemann, K. & Sasisekharan, R. (1998) Proc Natl Acad Sci USA 95, 4182-7). These studies, however, were carried out assuming a published structure (Toida, T., Hileman, R. E., Smith, A. E., Vlahova, P. I. & Linhardt, R. J. (1996) J Biol Chem 271, 32040-7). In light of the newly determined structure of AT-10 described herein (see also Shriver, Z., Raman, R., Venkataraman, G., Drummond, K., Turnbull, J., Toida, T., Linhardt, R., Biemann, K. & Sasisekharan, R. (2000) Proc Natl Acad Sci USA, 2000 Sep. 12; 97(19):10359-64), we reexamined the enzymatic action of heparinases I, II, and III towards oligosaccharides containing a 3-O sulfate that is critical for high affinity AT-III binding. For these studies, we used three oligosaccharides, two pentasaccharides (Penta 1 and Penta 2, FIG. 5) and a hexasaccharide (Hexa 1, FIG. 5). […]\n(§3) Compositional Analysis: UFH was subjected to exhaustive depolymerization with an enzyme cocktail made up of Heparinase I, Heparinase II, and Heparinase III. […] The samples were analyzed by CE in reverse polarity with a running buffer of 50 mM tris/phosphate, 10 μM dextran sulfate, pH 2.5. […] Each sample was digested in duplicate and the experiment was repeated twice for each sample, resulting in four readings per sample. All of the 8 resulting peaks were collected, and the purity of the collected samples was checked by re-injecting into CE, and their mass was measured by offline MALDI Mass Spectrometry. […]"}, "heparinase III": {"molecular_target": "T2, heparinase III (Pedobacter heparinus, UniProt Q59289)", "T2 construct": "made in house", "T2 sequence (Q59289 25-659)": "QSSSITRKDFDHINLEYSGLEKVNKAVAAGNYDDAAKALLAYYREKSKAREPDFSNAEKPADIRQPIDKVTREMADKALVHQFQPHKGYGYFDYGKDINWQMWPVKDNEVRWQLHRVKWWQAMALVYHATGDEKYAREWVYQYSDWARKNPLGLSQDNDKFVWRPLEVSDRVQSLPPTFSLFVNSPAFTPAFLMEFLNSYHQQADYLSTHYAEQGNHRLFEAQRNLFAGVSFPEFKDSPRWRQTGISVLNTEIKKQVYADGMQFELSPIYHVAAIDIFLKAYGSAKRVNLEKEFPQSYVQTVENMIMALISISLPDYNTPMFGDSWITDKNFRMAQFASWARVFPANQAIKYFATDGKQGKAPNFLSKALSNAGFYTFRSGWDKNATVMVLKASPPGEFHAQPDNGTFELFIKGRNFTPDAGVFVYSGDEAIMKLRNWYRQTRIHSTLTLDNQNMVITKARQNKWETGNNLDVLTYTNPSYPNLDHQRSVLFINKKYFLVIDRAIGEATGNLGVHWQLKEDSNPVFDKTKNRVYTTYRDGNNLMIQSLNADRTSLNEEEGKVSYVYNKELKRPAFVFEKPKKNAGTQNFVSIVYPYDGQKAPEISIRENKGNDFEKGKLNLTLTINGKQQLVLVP", "test": "Exhaustive heparinase III digestion, products by MALDI-MS", "format": "biochemical, Flavobacterium heparinum", "procedure": "as §1, §2, §3"}, "heparinase II": {"molecular_target": "T3, heparinase II (Pedobacter heparinus, UniProt C6XZB6)", "T3 construct": "made in house", "T3 sequence (C6XZB6 26-772)": "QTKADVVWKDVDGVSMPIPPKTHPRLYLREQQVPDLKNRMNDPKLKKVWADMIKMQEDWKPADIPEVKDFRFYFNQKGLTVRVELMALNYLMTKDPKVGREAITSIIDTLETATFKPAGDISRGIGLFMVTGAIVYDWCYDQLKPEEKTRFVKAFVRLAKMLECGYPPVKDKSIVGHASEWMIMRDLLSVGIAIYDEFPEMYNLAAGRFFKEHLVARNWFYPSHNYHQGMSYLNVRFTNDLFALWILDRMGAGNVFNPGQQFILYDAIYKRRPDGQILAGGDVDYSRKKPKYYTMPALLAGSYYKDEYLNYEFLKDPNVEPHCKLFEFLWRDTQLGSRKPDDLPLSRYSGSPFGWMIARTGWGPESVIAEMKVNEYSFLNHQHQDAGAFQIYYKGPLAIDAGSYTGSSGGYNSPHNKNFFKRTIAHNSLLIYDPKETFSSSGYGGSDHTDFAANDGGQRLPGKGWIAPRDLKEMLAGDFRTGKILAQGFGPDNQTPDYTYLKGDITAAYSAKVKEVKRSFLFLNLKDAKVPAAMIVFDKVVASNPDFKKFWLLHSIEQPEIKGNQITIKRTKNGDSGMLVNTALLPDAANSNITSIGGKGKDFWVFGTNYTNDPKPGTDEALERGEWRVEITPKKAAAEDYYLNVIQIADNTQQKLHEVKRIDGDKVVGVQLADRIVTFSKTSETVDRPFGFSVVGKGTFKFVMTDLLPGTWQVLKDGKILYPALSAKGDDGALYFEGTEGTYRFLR", "test": "Exhaustive heparinase II digestion, products by MALDI-MS", "format": "biochemical, Flavobacterium heparinum", "procedure": "as §1, §2, §3"}, "factor Xa (FXa)": {"tested_on": "factor Xa (FXa)", "test": "Anti-Xa assay (factor Xa generation inhibition; factor Xa from serum or purified)", "format": "biochemical", "procedure": "(§4) Biological Measurements of Decasaccharide Activity. In vitro anticoagulant activity was determined as described previously (Hoppensteadt, D. A., Jeske, W. P., Walenga, J. M., Fu, K., Yang, L. H., Ing, T. S., Herbert, J. M. & Fareed, J. (1999) Thromb Res 96, 115-24 and Dietrich, C. P., Paiva, J. F., Castro, R. A., Chavante, S. F., Jeske, W., Fareed, J., Gorin, P. A., Mendes, A. & Nader, H. B. (1999) Biochim Biophys Acta 1428, 273-83), according to the United States Pharmacopoeia. Thrombin (FIIa) and factor Xa (FXa) generation inhibition assays were completed essentially as described. Briefly, either AT-10 decasaccharide, Enoxaparin LMWH or the synthetic AT-III binding pentasaccharide (Penta 1) used in this study was dissolved in sterile saline at the designated concentrations. To this sample was added an equal volume of fibrinogen deficient plasma diluted 1:8 in 100 mM Tris-HCl (pH 8.5). In a separate sample, the same concentration of heparin oligosaccharide and actin was added in a 1:1 ratio to either Spectrozyme TH or FXa. In this manner, the intrinsic IIa and Xa generation was measured. In addition, to account for inhibition of thrombin and extrinsic generation of FXa, thromboplastin C was diluted 1:6 with either Spectrozyme TH or FXa. For all samples, the optical density was measured at 405 nm and results are expressed as a % inhibition compared to a unsupplemented saline control. […]"}, "Thrombin (FIIa)": {"molecular_target": "T4, Thrombin (FIIa) (Homo sapiens, UniProt P00734)", "T4 construct": "purchased Ortho Diagnostic Systems, Inc. (Raritan, N.J.) Fibrindex", "test": "Anti-IIa assay (thrombin generation inhibition)", "format": "biochemical", "procedure": "as §4"}, "human AT-III [1]": {"molecular_target": "T5, human AT-III (Homo sapiens, UniProt P01008)", "test": "Equilibrium fluorescence titration of AT-III with saccharide", "format": "binding", "procedure": "Equilibrium Fluorescence Titration Experiments. Titrations of human AT-III with either AT-10 decasaccharide or heparin were completed at 25° C. using a Fluorolog 2 machine (Spex Instruments) (Meagher, J. L., Beechem, J. M., Olson, S. T. & Gettins, P. G. (1998) J Biol Chem 273, 23283-9 and Desai, U. R., Petitou, M., Bjork, I. & Olson, S. T. (1998) J Biol Chem 273, 7478-87). […] With the pH 7.4 buffer, sodium chloride was added to a final concentration of 100 mM.\nFluorescence emission spectra were collected from 300-400 nm with a 280 nm excitation wavelength and a 5 s integration time. Briefly, the titration experiments were conducted as follows—aliquots of either decasaccharide or heparin was added to a 1 μm solution of AT-III, the solution was allowed to come to equilibrium for one minute, and an emission spectrum collected. Addition of sequential saccharide aliquots and fluorescence signal was adjusted to account for protein dilution."}, "whole blood": {"tested_on": "whole blood", "test": "HepTest", "procedure": "Whole blood data were also used to determine the anticoagulant activity of AT-10. The assays, activated partial thromboplastin time (APTT) and prothrombin time (PT) was conducted in a manner similar to what has been previously reported (Dietrich, C. P., Paiva, J. F., Castro, R. A., Chavante, S. F., Jeske, W., Fareed, J., Gorin, P. A., Mendes, A. & Nader, H. B. (1999) Biochim Biophys Acta 1428, 273-83). APTT reagent was obtained from Organon Teknika (Durham, N.C.) and HepTest Reagent was obtained from Haemachem (St. Louis, Mo.)."}, "human AT-III [2]": {"molecular_target": "T5, human AT-III", "conditions": "Desai et al. 1998; cited from earlier work"}}, "note": "Like-named read-outs stand apart in the source and are kept apart here."}
{"smiles": "CO[C@H]1O[C@H](COS(=O)(=O)O)[C@@H](O[C@@H]2O[C@@H](C(=O)O)[C@@H](O[C@H]3O[C@H](COS(=O)(=O)O)[C@@H](O[C@@H]4O[C@H](C(=O)O)[C@@H](O[C@H]5O[C@H](COS(=O)(=O)O)[C@@H](O)[C@H](O)[C@H]5NS(=O)(=O)O)[C@H](O)[C@H]4O)[C@H](O)[C@H]3NS(=O)(=O)O)[C@H](O)[C@H]2OS(=O)(=O)O)[C@H](O)[C@H]1NS(=O)(=O)O", "note": "[Penta 2, HNS,6SGHNS,6SI2SHNS,6S,OMe]", "values": [{"measurement": "cleavage by heparinase I", "setting": "heparinase I", "result": "efficiently cleave"}, {"measurement": "cleavage by heparinase III", "setting": "heparinase III", "result": "efficiently cleave"}, {"measurement": "cleavage by heparinase II", "setting": "heparinase II", "result": "efficiently cleave"}]}
{"smiles": "CC(=O)NC1C(OC2C(C(=O)O)OC(OC3C(COS(=O)(=O)O)OC(O)C(NS(=O)(=O)O)C3OS(=O)(=O)O)C(O)C2O)OC(COS(=O)(=O)O)C(OC2OC(C(=O)O)C(OC3OC(COS(=O)(=O)O)C(OC4OC(C(=O)O)C(OC5OC(COS(=O)(=O)O)C(OC6OC(C(=O)O)C(OC7OC(COS(=O)(=O)O)C(OC8OC(C(=O)O)=CC(O)C8OS(=O)(=O)O)C(O)C7NS(=O)(=O)O)C(O)C6OS(=O)(=O)O)C(O)C5NS(=O)(=O)O)C(O)C4OS(=O)(=O)O)C(O)C3NS(=O)(=O)O)C(O)C2O)C1O", "note": "[AT-10, ΔU2SHNS,6SI2SHNS,6SI2SHNS,6SIHNAc,6SGHNS,3S,6S]", "values": [{"measurement": "IC50", "setting": "factor Xa (FXa)", "result": 280, "unit": "nM"}, {"measurement": "anti-IIa activity (in words)", "setting": "Thrombin (FIIa)", "result": "neither the decasaccharide nor the pentasaccharide have significant anti-IIa activity"}, {"measurement": "Kd", "setting": "human AT-III [1]; pH 6.0 I=0.025, read-out: KD for AT-III", "result": 800, "unit": "nM"}, {"measurement": "Kd", "setting": "human AT-III [1]; pH 6.2, read-out: apparent KD for AT-III", "result": 800, "unit": "nM"}, {"measurement": "affinity for AT-III (in words)", "setting": "human AT-III [1]; pH 7.4, I=0.15", "result": "very little affinity"}]}
{"smiles": "CC(=O)N[C@H]1[C@@H](O[C@H]2[C@H](O)[C@@H](O)[C@H](O[C@H]3[C@H](OS(=O)(=O)O)[C@@H](NS(=O)(=O)O)C(O)O[C@@H]3COS(=O)(=O)O)O[C@@H]2C(=O)O)O[C@H](COS(=O)(=O)O)[C@@H](O[C@@H]2OC(C(=O)O)=C[C@H](O)[C@H]2O)[C@@H]1O", "note": "(stereo partly drawn) [ΔUHNAC,6SGHNS,3S,6S]", "values": [{"measurement": "cleavage by heparinase I", "setting": "heparinase I", "result": "resistant to further degradation"}, {"measurement": "cleavage by heparinase III", "setting": "heparinase III", "result": "resistant to further degradation"}, {"measurement": "cleavage by heparinase II", "setting": "heparinase II", "result": "resistant to further degradation"}]}
{"smiles": "CO[C@H]1O[C@H](COS(=O)(=O)O)[C@@H](O[C@@H]2O[C@@H](C(=O)O)[C@@H](O[C@H]3O[C@H](COS(=O)(=O)O)[C@@H](O[C@@H]4O[C@H](C(=O)O)[C@@H](O[C@H]5O[C@H](COS(=O)(=O)O)[C@@H](O)[C@H](O)[C@H]5NS(=O)(=O)O)[C@H](O)[C@H]4O)[C@H](OS(=O)(=O)O)[C@H]3NS(=O)(=O)O)[C@H](O)[C@H]2OS(=O)(=O)O)[C@H](O)[C@H]1NS(=O)(=O)O", "note": "[Penta 1, HNS,6SGHNS,3S,6SI2SHNS,6S,OMe]", "values": [{"measurement": "cleavage by heparinase I", "setting": "heparinase I", "result": "cleave"}, {"measurement": "HepTest activity (in words)", "setting": "whole blood", "result": "significantly higher activity than the AT-10 decasaccharide"}, {"measurement": "affinity for AT-III, previous studies (in words)", "setting": "human AT-III [2]", "result": "affinity similar to that of full length heparin"}, {"measurement": "cleavage by heparinase III", "setting": "heparinase III", "result": "not cleavable"}, {"measurement": "cleavage by heparinase II", "setting": "heparinase II", "result": "cleave"}, {"measurement": "IC50", "setting": "factor Xa (FXa)", "result": 39, "unit": "nM"}, {"measurement": "anti-IIa activity (in words)", "setting": "Thrombin (FIIa)", "result": "neither the decasaccharide nor the pentasaccharide have significant anti-IIa activity"}]}
{"smiles": "CC(=O)NC1C(OC2C(C(=O)O)OC(OC3C(COS(=O)(=O)O)OC(O)C(NS(=O)(=O)O)C3OS(=O)(=O)O)C(O)C2O)OC(COS(=O)(=O)O)C(OC2OC(C(=O)O)C(OC3OC(COS(=O)(=O)O)C(OC4OC(C(=O)O)=CC(O)C4OS(=O)(=O)O)C(O)C3NS(=O)(=O)O)C(O)C2O)C1O", "note": "[Hexa 1, ΔU2SHNS,6SIHNAc,6S, GHNS,3S,6S]", "values": [{"measurement": "cleavage by heparinase I", "setting": "heparinase I", "result": "not cleaved"}, {"measurement": "cleavage by heparinase III", "setting": "heparinase III", "result": "susceptible"}, {"measurement": "cleavage by heparinase II", "setting": "heparinase II", "result": "susceptible"}]}
